pKa, IAR and pD2 data for three molecules are collected here from ChEMBL document CHEMBL1123596, “5-fluoro- and 8-fluorotrimetoquinol: selective beta 2-adrenoceptor agonists” (J Med Chem, 1987).

A short description of series [1]: Acid dissociation constant was determined. The series is classed as ADME.
Series [2] concerns the target Beta-1 adrenergic receptor (Cavia porcellus) (UniProt B0FL73).
The target of series [3] is Beta-2 adrenergic receptor (Cavia porcellus) (UniProt Q8K4Z4). To be noted: Trachea.
The target in series [4] is Beta-1 adrenergic receptor (Cavia porcellus) (UniProt B0FL73). The source holds these as a separate data set.

SMILES strings stand for the structures. Counter-ions that a name gives are not always drawn.

Chain of Beta-1 adrenergic receptor (Cavia porcellus) (B0FL73 1-467): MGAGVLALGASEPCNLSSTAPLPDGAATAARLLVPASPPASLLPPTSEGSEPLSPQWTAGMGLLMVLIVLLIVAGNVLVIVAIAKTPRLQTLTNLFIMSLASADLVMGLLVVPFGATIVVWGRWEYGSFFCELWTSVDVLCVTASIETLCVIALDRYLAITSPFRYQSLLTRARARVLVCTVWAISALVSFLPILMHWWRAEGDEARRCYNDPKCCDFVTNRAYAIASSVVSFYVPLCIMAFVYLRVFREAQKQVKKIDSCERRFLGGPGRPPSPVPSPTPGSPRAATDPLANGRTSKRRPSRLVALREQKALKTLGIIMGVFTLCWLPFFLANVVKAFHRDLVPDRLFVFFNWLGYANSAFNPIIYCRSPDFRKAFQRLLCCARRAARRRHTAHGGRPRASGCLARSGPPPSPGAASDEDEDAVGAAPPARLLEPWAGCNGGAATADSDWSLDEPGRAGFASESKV
Chain of Beta-2 adrenergic receptor (Cavia porcellus) (Q8K4Z4 whole entry, looked up): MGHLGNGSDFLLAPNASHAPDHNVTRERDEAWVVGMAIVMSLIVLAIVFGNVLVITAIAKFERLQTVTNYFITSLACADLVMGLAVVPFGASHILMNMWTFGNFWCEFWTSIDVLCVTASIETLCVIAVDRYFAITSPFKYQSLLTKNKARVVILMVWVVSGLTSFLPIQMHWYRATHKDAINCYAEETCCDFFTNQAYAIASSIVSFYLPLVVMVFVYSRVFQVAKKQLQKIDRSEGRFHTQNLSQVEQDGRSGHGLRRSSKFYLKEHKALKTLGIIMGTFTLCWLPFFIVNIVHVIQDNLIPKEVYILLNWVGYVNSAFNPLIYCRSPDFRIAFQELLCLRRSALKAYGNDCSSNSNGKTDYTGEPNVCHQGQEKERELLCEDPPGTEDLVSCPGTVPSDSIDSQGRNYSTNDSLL

On to `COc1cc(CC2NCCc3c2cc(O)c(O)c3F)cc(OC)c1OC` (stereo not drawn), for which the pKa – broadly, the negative logarithm of the acid dissociation constant – in series [1] stood at 8.11. For the same molecule, the IAR in series [2] was found to be 0.96; in series [3] it was 0.95.

In series [1], `COc1cc(CC2NCCc3cc(O)c(O)c(F)c32)cc(OC)c1OC` (stereo not drawn) yielded a pKa of 7.86.

Consider `COc1cc(CC2NCCc3cc(O)c(O)cc32)cc(OC)c1OC` (stereo not drawn) [TRETOQUINOL HYDROCHLORIDE], for which the pKa in series [1] is 8.77. The same molecule registered a pD2 in series [4] of 7.52. The IAR was found to be 1 in series [2] and 0.95 in series [3].
